These results are taken from PubChem BioAssay AID264 (DTP/NCI, 2004).

Several values for one entry are separate records, joined by “and”; a condition that tells them apart may be missing. Equal entries are not always repeated. Results filed as inconclusive are left out.

The experiment relates to nude mice, LX-1 lung xenograft intrarenal, tumor weight T/C. Description: NCI In Vivo Anticancer Drug Screen. Data for tumor model Human Lung LX-1 Xenograft (intrarenal inoculation) in NU/NU Swiss (nude) mice. Particulars: endpoint: mean tumor weight change, higher = larger tumour. In short, it runs like this:
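Tumor-bearing mice receive test compound or vehicle; tumor size is then measured in each group. The treated value is divided by the vehicle value to give T/C.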
On the technique in general: A xenograft is tissue or cells of one species grown in another, often human tumour cells in immunodeficient mice.

[1] abbreviates: dose: 200.0 mg/kg/injection, schedule: Q04DX003 (sc), vehicle: saline.
Where [2] appears, read: dose: 400.0 mg/kg/injection, schedule: Q04DX003 (sc), vehicle: saline.
Setting [3] is: dose: 600.0 mg/kg/injection, schedule: Q04DX003 (sc), vehicle: saline with Tween-80.
The mark [4] stands for this setting: dose: 1200.0 mg/kg/injection, schedule: Q04DX003 (sc), vehicle: saline with Tween-80.
The mark [5] stands for this setting: dose: 2400.0 mg/kg/injection, schedule: Q04DX003 (sc), vehicle: saline with Tween-80.
Where [6] appears, read: dose: 100.0 mg/kg/injection, schedule: Q01DX010 (sc), vehicle: Klucel (hydroxypropylcellulose) (HPC).

Take `Nc1ncn(C2OC(CO)C(O)C2O)c(=O)n1` (stereo not drawn): the T/C is 164 % of control (dose: 0.19 mg/kg/injection, schedule: Q01DX010 (sc), vehicle: saline); 40 % of control (dose: 0.75 mg/kg/injection, schedule: Q01DX010 (sc), vehicle: saline); 101 % of control (dose: 10.0 mg/kg/injection, schedule: Q04DX003 (sc), vehicle: saline); 52 % of control (dose: 20.0 mg/kg/injection, schedule: Q04DX003 (sc), vehicle: saline); 86 % of control (dose: 100.0 mg/kg/injection, schedule: Q04DX003 (sc), vehicle: saline); 64 % of control under setting [1]. In addition, the T/C is, setting by setting: (dose: 200.0 mg/kg/injection, schedule: Q04DX003 (sc), vehicle: suspension in saline) 45 % of control; under setting [2], 35 % of control; (dose: 800.0 mg/kg/injection, schedule: Q04DX003 (sc), vehicle: saline) 16 % of control; (dose: 800.0 mg/kg/injection, schedule: Q04DX003 (sc), vehicle: suspension in saline) 19 % of control and 28 % of control; (dose: 1228.8 mg/kg/injection, schedule: Q04DX003 (sc), vehicle: suspension in saline) -72 % of control; (dose: 1600.0 mg/kg/injection, schedule: Q04DX003 (sc), vehicle: suspension in saline) 12 % of control and 14 % of control. In addition, the T/C runs as follows: (dose: 1920.0 mg/kg/injection, schedule: Q04DX003 (sc), vehicle: suspension in saline) -100 % of control; (dose: 2400.0 mg/kg/injection, schedule: Q04DX003 (sc), vehicle: suspension in saline) -100 % of control.

On to `O=C1SC(c2ccccc2)=S=C1c1ccccc1`, for which the T/C is 224 % of control under setting [3], 78 % of control under setting [4] and 88 % of control under setting [5].

`CN=C(N)N/N=C(\c1ccccc1)c1ccc(Br)cc1`: the T/C (dose: 12.5 mg/kg/injection, schedule: Q04DX003 (sc), vehicle: saline with Tween-80) was 88 % of control; the T/C (dose: 25.0 mg/kg/injection, schedule: Q04DX003 (sc), vehicle: saline with Tween-80) was 122 % of control; the T/C (dose: 50.0 mg/kg/injection, schedule: Q04DX003 (sc), vehicle: saline with Tween-80) was 103 % of control.

On to `CCN(CC)CCCNc1nccc2c(C)c3[nH]c4ccncc4c3cc12`, for which the T/C (dose: 5.0 mg/kg/injection, schedule: Q01DX010 (sc), vehicle: other) is 59 % of control and the T/C (dose: 10.0 mg/kg/injection, schedule: Q01DX010 (sc), vehicle: other) is 49 % of control.

On to `CCCCCC1c2cc(O)ccc2OC1N1CCOCC1` (stereo not drawn), for which the T/C under setting [3] is 150 % of control, the T/C under setting [4] is 52 % of control and the T/C under setting [5] was 89 % of control.

Regarding `C=C(OP(=O)(OC)OC)Sc1ccccc1C`, the T/C is 68 % of control (dose: 100.0 micrograms/kg/injection, schedule: Q04DX003 (sc), vehicle: Klucel (hydroxypropylcellulose) (HPC)); 68 % of control (dose: 200.0 micrograms/kg/injection, schedule: Q04DX003 (sc), vehicle: Klucel (hydroxypropylcellulose) (HPC)); 67 % of control (dose: 400.0 micrograms/kg/injection, schedule: Q04DX003 (sc), vehicle: Klucel (hydroxypropylcellulose) (HPC)); 79 % of control (dose: 800.0 micrograms/kg/injection, schedule: Q04DX003 (sc), vehicle: Klucel (hydroxypropylcellulose) (HPC)).

Turning to `Nc1ncnc2c1ncn2C1OC(COP(=O)(O)O)C(O)C1O` (stereo not drawn), the T/C runs as follows: (dose: 100.0 mg/kg/injection, schedule: Q01DX010 (sc), vehicle: saline) 38 % of control; (dose: 200.0 mg/kg/injection, schedule: Q01DX010 (sc), vehicle: saline) 78 % of control; (dose: 400.0 mg/kg/injection, schedule: Q01DX010 (sc), vehicle: saline) 59 % of control; (dose: 800.0 mg/kg/injection, schedule: Q01DX010 (sc), vehicle: saline) 67 % of control.

Regarding `CC[C@](C)(O)C(=O)O[C@H]1C(=O)O[C@@H]2C[C@H]3C(C)=CC(=O)[C@@H](O)[C@]3(C)[C@H]3[C@@]4(O)OC[C@]32[C@@H]1[C@@H](C)[C@H]4O`, the T/C reads like this: (dose: 0.25 mg/kg/injection, schedule: Q01DX010 (sc), vehicle: Klucel (hydroxypropylcellulose) (HPC)) 48 % of control; (dose: 0.5 mg/kg/injection, schedule: Q01DX010 (sc), vehicle: Klucel (hydroxypropylcellulose) (HPC)) 71 % of control and 92 % of control; (dose: 1.0 mg/kg/injection, schedule: Q01DX010 (sc), vehicle: Klucel (hydroxypropylcellulose) (HPC)) 70 % of control and 75 % of control; (dose: 2.0 mg/kg/injection, schedule: Q01DX010 (sc), vehicle: Klucel (hydroxypropylcellulose) (HPC)) 43 % of control and 45 % of control.

As to `CCOC(=O)Nc1cc2c(c(N)n1)N=C(CN(C)c1ccccc1)CN2`, the T/C is 166 % of control (dose: 12.5 mg/kg/injection, schedule: Q01DX010 (sc), vehicle: Klucel (hydroxypropylcellulose) (HPC)); 186 % of control (dose: 25.0 mg/kg/injection, schedule: Q01DX010 (sc), vehicle: Klucel (hydroxypropylcellulose) (HPC)); 103 % of control under setting [6].

In the case of `COc1cc(Cl)ccc1C`, the T/C reads like this: (dose: 300.0 mg/kg/injection, schedule: Q04DX003 (sc), vehicle: saline with Tween-80) 116 % of control; under setting [3], 88 % of control; under setting [4], 100 % of control; under setting [5], 121 % of control.

`CC(C)NC(=O)OCc1c(COC(=O)NC(C)C)c(-c2ccc(Cl)c(Cl)c2)n2c1CCC2`: the T/C is 27 % of control (dose: 25.0 mg/kg/injection, schedule: Q01DX010 (sc), vehicle: distilled water + Tween-80); 68 % of control (dose: 200.0 mg/kg/injection, schedule: Q04DX003 (sc), vehicle: distilled water + Tween-80); 50 % of control (dose: 400.0 mg/kg/injection, schedule: Q04DX003 (sc), vehicle: distilled water + Tween-80); 40 % of control (dose: 800.0 mg/kg/injection, schedule: Q04DX003 (sc), vehicle: distilled water + Tween-80); 90 % of control (dose: 1600.0 mg/kg/injection, schedule: Q04DX003 (sc), vehicle: distilled water + Tween-80).

Turning to `CCCCCCOC(CN(C)C)C(Cl)(Cl)Cl` (stereo not drawn), the T/C by setting is: (dose: 200.0 mg/kg/injection, schedule: Q04DX003 (sc), vehicle: saline with Tween-80) 121 % of control; (dose: 400.0 mg/kg/injection, schedule: Q04DX003 (sc), vehicle: saline with Tween-80) 95 % of control; (dose: 800.0 mg/kg/injection, schedule: Q04DX003 (sc), vehicle: saline with Tween-80) 59 % of control; (dose: 1600.0 mg/kg/injection, schedule: Q04DX003 (sc), vehicle: saline with Tween-80) 74 % of control.

With `CCCCc1ccc2nc(NC(=O)OC)[nH]c2c1`, the T/C runs as follows: (dose: 100.0 mg/kg/injection, schedule: Q01DX010 (sc), vehicle: saline with Tween-80) 53 % of control and 78 % of control; (dose: 1600.0 mg/kg/injection, schedule: Q01DX010 (sc), vehicle: saline with Tween-80) 84 % of control.

In the case of `CN(C1=NS(=O)(=O)N=C(N(C)c2ccccc2)O1)c1ccccc1`, the T/C was 66 % of control (dose: 300.0 mg/kg/injection, schedule: Q04DX003 (sc), vehicle: Klucel (hydroxypropylcellulose) (HPC)); 61 % of control (dose: 600.0 mg/kg/injection, schedule: Q04DX003 (sc), vehicle: Klucel (hydroxypropylcellulose) (HPC)); 79 % of control (dose: 1200.0 mg/kg/injection, schedule: Q04DX003 (sc), vehicle: Klucel (hydroxypropylcellulose) (HPC)); 91 % of control (dose: 2400.0 mg/kg/injection, schedule: Q04DX003 (sc), vehicle: Klucel (hydroxypropylcellulose) (HPC)).

Turning to `CC1(C)COCN1COCCOCN1COCC1(C)C`, the T/C was 169 % of control under setting [1] and 191 % of control under setting [2].

As for `O=C(Nc1ccc(Cl)c(Cl)c1)Nc1c(Oc2ccc(Cl)c(Cl)c2)ccc(Cl)c1S(=O)(=O)O`, the T/C reads like this: under setting [6], 43 % of control; (dose: 200.0 mg/kg/injection, schedule: Q01DX010 (sc), vehicle: Klucel (hydroxypropylcellulose) (HPC)) 50 % of control; (dose: 400.0 mg/kg/injection, schedule: Q01DX010 (sc), vehicle: Klucel (hydroxypropylcellulose) (HPC)) 69 % of control; (dose: 800.0 mg/kg/injection, schedule: Q01DX010 (sc), vehicle: Klucel (hydroxypropylcellulose) (HPC)) 60 % of control.

For `CN1CCN(Cc2nc3cccc4c3c([n+]2[O-])-c2ccccc2-4)CC1`, the T/C is, setting by setting: (dose: 12.5 mg/kg/injection, schedule: Q01DX010 (sc), vehicle: saline with Tween-80) 83 % of control; (dose: 25.0 mg/kg/injection, schedule: Q01DX010 (sc), vehicle: saline with Tween-80) 161 % of control; (dose: 50.0 mg/kg/injection, schedule: Q01DX010 (sc), vehicle: saline with Tween-80) 180 % of control.
